Values quoted from earlier work in patent publication US20070099846A1, “Composition containing dipeptide of histidine and alanine for reducing uric acid and method for reducing uric acid using the dipeptide” (LYTONE ENTERPRISE, INC., priority 2003, published 2007).

Tested on: peptidase and proteases excreted from pancreas or other digestive organs

Resistance against digestion by peptidase and proteases: resist against digestion
SMILES: NCCC(=O)N[C@@H](Cc1cnc[nH]1)C(=O)O [carnosine, β-alanyl-L-histidine]
